Source: article PMC7222207, “Characterization of a CholesteroNitrone (ISQ-201), a Novel Drug Candidate for the Treatment of Ischemic Stroke” (Antioxidants, 2020)

Assays:
[1] = tested on: transient forebrain ischemia, hippocampal CA1 and cortical neurons; experiment: Global cerebral ischemia (4VO), neuronal apoptosis by TUNEL assay; format: in vivo, male Wistar rats; parameters: maximum neuroprotection (Emax), TUNEL assay: dose or concentration left out as unconfirmed; details: for maximum neuroprotection (Emax), TUNEL assay: iv at reperfusion onset
Protocol: (§1) Transient forebrain ischemia was induced in adult male Wistar rats (10–12 weeks, Charles River) by the standard four-vessel occlusion model (4VO) described previously. Briefly, both vertebral arteries were irreversibly occluded by electrocoagulation under anesthesia, with a mixture of atropine, ketamine, and diazepam (0.25, 62.5, and 5 mg/kg, respectively) delivered through intraperitoneal injection. After 24 h, ischemia was induced by carotid occlusion with atraumatic clips, for 15 min, and then the clips were removed from the carotid arteries to allow reperfusion. Body temperature was maintained at 37 °C during the surgical procedure. The animals were studied after 5 days of reperfusion (R5d) after which they were sacrificed. Sham control animals were prepared in the same way, without carotid occlusion. We performed a power analysis (http://www.biomath.info/power/ttest.htm) to determine the sample size. Significance level and statistical power were set at 0.05 and 0.8 (80%), respectively, which afforded a sample size of […] subjects per group. The treatments were administered with concealed allocation, and in randomized order, according to a computer-generated randomization program. Ischemic animals were treated with a vehicle solution (saline/ethanol, 90:10 vol/vol) or nitrone ISQ-201, dissolved in a vehicle solution through a single intravenous tail injection, when the carotid arteries were unclamped for reperfusion. In therapeutic window experiments, the animals were treated once at the reperfusion onset or at the set reperfusion time points, after ischemia. For the administration, at 6 h and 48 h of reperfusion after ischemia, the animals were anesthetized with isoflurane for 2–3 min and 5 min, respectively, prior to the treatment administration. An independent researcher prepared the treatments for each animal, according to the randomization schedule. Data of each experimental group were normalized to each vehicle control group. All procedures associated with animal experiments were approved by the Animal Care Ethics Committee of the Hospital Universitario Ramón y Cajal (Madrid, Spain, code no. 06/2015) and were performed according to the ARRIVE guidelines.
After 5 days of reperfusion (R5d), the animals were euthanized by transcardiac perfusion, under deep anesthesia. A washout step with 200 mL of saline via the left ventricle was followed by a fixation with 4% (w/v) paraformaldehyde solution in PBS. Brains were then removed and post-fixed in the same solution, overnight at 4 °C, sequentially washed with 10%, 20%, and 30% (w/v) sucrose in PBS, and embedded in Tissue-Tek O.C.T. (Sakura Finetek), before freezing at −80 °C. Brain coronal sections containing the hippocampus were obtained by cryostat sectioning at the level of interaural line +5.7 ± 0.2 mm on real capillary gap microscope slides (Dako).
Apoptotic neurons within the brain sections were detected by using the Terminal deoxynucleotidyl transferase-mediated dUTP Nick-End Labeling (TUNEL) assay (Promega). For this test, 5-µm-thick coronal cryostat brain sections containing the dorsal hippocampal formation were obtained, as described above, and post-fixed with 4% formaldehyde in PBS for 5 min, at room temperature. After washing in PBS for three times, the sections were permeabilized with 0.1 M sodium citrate, pH 6.0, for 1 min at 95 °C, then quickly cooled in ice and washed in PBS for 5 min at room temperature. […]

[2] = tested on: lipid peroxidation and ROS levels; parameters: method as in PMID 26241908; details: preliminary results; cited from earlier work
[3] = tested on: transient forebrain ischemia, hippocampal CA1 and cortical neurons; experiment: Global cerebral ischemia (4VO), neuronal death by Fluoro-Jade B staining; format: in vivo, male Wistar rats; details: for maximum neuroprotection (Emax), neuronal death assay: iv at reperfusion onset
Protocol: as §1
After 5 days of reperfusion (R5d), the animals were euthanized by transcardiac perfusion, under deep anesthesia. […]
Brain cryosections (10 µm thick) from ischemic animals reperfused for 5 days were used after fixation to detect neuronal death by Fluoro-Jade B staining, and visualized by fluorescence microscopy. Labeled (dead) neuronal cells (in green) were counted, as in TUNEL assay (see below). Data from different animals of each experimental group were independently analyzed by two observers, and treatment information was kept concealed throughout the study.

[4] = tested on: cerebral ischemia; parameters: method as in PMID 26241908; details: 0.05 and 0.1 mg/kg intraperitoneal at onset of reperfusion; cited from earlier work
[5] = tested on: transient forebrain ischemia; experiment: Long-term behavioral tests in Y maze (exploration, spatial recognition, spatial memory); format: in vivo, male Wistar rats; details: 0.05 mg/kg iv at reperfusion onset, 11 weeks after ischemic reperfusion
Protocol: For the long-term studies, animals were subjected to behavioral tests, in order to assess their spontaneous spatial alternation and spatial memory skills, as markers of neurological damage present in longer periods, after the surgical procedure. According to previous literature, we selected the Y maze, in which both the exploration activity (spatial recognition) and spatial memory were evaluated.
For the exploration activity and spatial recognition, control animals and ischemic animals treated with the vehicle or ISQ-201 were placed in the center of the maze and let to explore for 8 min. The total number of arms that the animal entered indistinctly (number of arm entries) and the times that the animal explored consecutively—the three different arms of the maze (number of alternations or triads)—were registered by an observer blind to the treatment.
For the assessment of spatial memory, the control animals and ischemic animals treated with the vehicle or ISQ-201 were placed into one of the arms of the Y maze (start arm) and were allowed to explore the maze with one of the arms closed for 10 min (training trial). After 1 h, the rats were returned to the Y maze by placing them in the start arm and allowing them to freely explore all three arms of the maze for 3 min. The arm of the first choice of entry, the new or old, was registered manually by an observer blind to the treatment.

[6] = hippocampal CA1, most potent concentration, 5 days of reperfusion

CC(C)[C@H]1CC[C@H]2[C@@H]3CCC4=C/C(=[N+](\C)[O-])CC[C@]4(C)[C@H]3CC[C@]12C [ISQ-201]
cell apoptosis vs vehicle, therapeutic window ([1]; 0.05 mg/kg iv given at 48 h postreperfusion, evaluated at 5 days): did not show significant differences | apoptosis-positive cells vs vehicle, therapeutic window ([1]; 0.05 mg/kg iv given up to and including 6 h postreperfusion, hippocampal and cortical regions, evaluated at 5 days): significantly reduced | apoptotic cells vs vehicle group ([1]; 0.05 and 0.1 mg/kg iv at reperfusion onset, CA1 and cortical regions, 5 days of reperfusion): significant reduction | maximum neuroprotection (Emax), TUNEL assay ([1]; cortex, most potent concentration, 5 days of reperfusion): 81% | maximum neuroprotection (Emax), TUNEL assay [1, 6]: 35% | effect on lipid peroxidation and ROS levels [2]: decreased | neuronal death vs vehicle, therapeutic window ([3]; 0.05 mg/kg iv given between 0 and 6 h after reperfusion, CA1 and cortex, evaluated at 5 days): significantly decreased | dead neuron number vs vehicle group ([3]; 0.05 and 0.1 mg/kg iv at reperfusion onset, CA1 and cortex, 5 days of reperfusion): significant reduction | maximum neuroprotection (Emax), neuronal death assay ([3]; cortex, most potent concentration, 5 days of reperfusion, vs vehicle = 0%): 80% | maximum neuroprotection (Emax), neuronal death assay [3, 6]: 31% | neuronal death, apoptosis and neurodeficit score [4]: significant decreases | spatial memory (new arm as first choice), Y maze [5]: recovery of values similar to the control group | exploration activity (number of arm entries), Y maze ([5]; vs control group): no significant differences with the control group | spatial recognition (number of alternations or triads), Y maze ([5]; vs control group): no significant differences
